Experimental data taken from patent US6911470B1, “Polyoxometalate compounds as antiviral agents” (priority 1988, dated 2005).
Several values for one entry are separate records, joined by “and”; a condition that tells them apart may be missing. Equal values may be shown once. Read-outs that look alike come from different tables or passages of the source.

Assays:
HIV-1 (strain LAV-1) = assay: microbe, parasite or virus in culture; assay type: cell-based
Protocol: Cells. Human peripheral blood mononuclear cells (PBMC) from healthy HIV-1 seronegative and hepatitis B virus seronegative donors were isolated by Ficoll-Hypaque discontinuous gradient centrifugation at 1,000×g for 30 minutes, washed twice in phosphate-buffered saline (pH 7.2; PBS), and pelleted at 300×g for 10 minutes. Before infection, the cells were stimulated by phytohemagglutinin (PHA) at a concentration of 6 μg/ml for three days in RPMI 1640 medium supplemented with 15% heat-inactivated fetal calf serum, 1.5 mM L-glutamine, penicillin (100 U/ml), streptomycin (100 μg/ml), and 4mM sodium bicarbonate buffer.
Viruses. HIV-1 (strain LAV-1) was obtained from Dr. P. Feorino (Centers for Disease Control, Atlanta, Ga.). The virus was propagated in human PBMC using RPMI 1640 medium, as described previously (McDougal et al, J. Immun. Meth. 76, 171-183, 1985) without PHA and supplemented with 7% v/v interleukin-2 (Advanced Biotechnologies, Silver Spring, Md.), 7 μg/ml DEAE-dextran (Pharmacia, Uppsala, Sweden), and 370 U/ml anti-human leucocyte (alpha) interferon (ICN, Lisle, Ill.). Virus obtained from cell-free culture supernatant was titrated and stored in aliquots at −80° C. until use.
Inhibition of virus replication in human PBMC. Uninfected PHA-stimulated human PBMC were uniformly distributed among 25 cm^2 flasks to give a 5 ml suspension containing about 2×10^6 cells/ml. Suitable dilutions of virus were added to infect the cultures. The mean reverse transcriptase (RT) activity of the inocula was 50,000 decompositions per min/ml corresponding to about 100 TCID50, as determined by Groopman et al. (Groopman et al, AIDS Res. Human Retro. 3, 71-85, 1987. The drugs at twice their final concentrations in 5 ml of RPMI 1640 medium, supplemented as described above, were added to the cultures. Uninfected and untreated PBMC at equivalent cell densities were grown in parallel as controls. The cultures were maintained in a humidified 5% CO2-95% air incubator at 37° C. for six days after infection, at which point all cultures were sampled for supernatant reverse transcriptase (RT) activity.
RT activity assay. Six ml supernatant from each culture was clarified from cells at 300×g for 10 minutes. Virus particles were pelleted from 5 ml samples at 40,000 rpm for 30 minutes using a Beckman 70.1 Ti rotor and suspended in 200 μl of virus disrupting buffer (50 mM Tris-Cl, pH 7.8, 800 mM NaCl, 20% glycerol, 0.5 mM phenylmethyl sulfonyl fluoride, and 0.5% Triton X-100).
The RT assay was performed in 96-well microtiter plates, as described by Spira et al. (Spira et al, J. Clin. Microbiol. 22, 97-99, 1987). The reaction mixture, which contained 50 mM Tris-Cl pH 7.8, 9 mM MgCl2, 5 mM dithiothreitol (DTT), 4.7 μg/ml (rA)n. (dT)12-18, 140 μM dATP, and 0.22 μM [^3H]TTP, specific activity 78.0 Ci/mmol, equivalent to 17,300 cpm/pmol; NEN Research Products, Boston, Mass., was added to each well. The sample (20 μl) was added to the reaction mixture which was then incubated at 37° C. for 2 hours. The reaction was terminated by the addition of 100 μl 10% trichloroacetic acid (TCA) containing 0.45 mM sodium pyrophosphate. The acid-insoluble nucleic acids which precipitated were collected on glass filters using a Skatron semi-automatic harvester. The filters were washed with 5% TCA and 70% ethanol, dried, and placed in scintillation vials. Four ml of scintillation fluid (Econofluor, NEN Research Products, Boston, Mass.) were added and the amount of radioactivity in each sample was determined using a Packard Tri-Carb liquid scintillation analyzer (model 2,000CA). The results were expressed in dpm/ml of original clarified supernatant.
Median-effect method. Dose-effect relationships were analyzed by the median-effect equation (Chou et al, Adv. Enz. Regul. 22, 27-55, 1984).

human PBM cells = assay: Cytotoxicity assay on uninfected PHA stimulated human PBMC (trypan blue); assay type: cell-based
Summary of the method: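 Uninfected PHA-stimulated human PBMC at 2×10^5 cells/ml were cultured with or without drug for 6 days. Viability was counted by trypan blue exclusion on a hemacytometer. IC50 was derived by the median-effect method.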

HSV-1 = assay: Plaque reduction assay for herpes simplex viruses in Vero cells; assay type: cell-based, herpes simplex virus type 1; conditions: Table 2, read-out: EC-50 HSV-1
Protocol: (§1) Cell culture assays for heroes simplex viruses. Mycoplasma-free Vero cells, obtained from Flow Laboratory (McLean, Va.), were used for the plaque assays. The methodologies for the plaque reduction and cytotoxicity assays have been previously described (Schinazi et al, Antimicrob. Agents Chemother. 22, 499-507, 1982). Median-effect method. Dose-effect relationships were analyzed by the median-effect equation (Chou et al, Adv. Enz. Regul. 22, 27-55, 1984). The slope (m) and median effective and inhibitory concentration (EC50 and IC50) values were obtained by using a computer program developed by Chou and Chou (Chou et al, Elsevier-Biosoft, Elsevier Science Publishers, Cambridge, U.K., 1985).

HSV-2 = assay: as above; assay type: cell-based, herpes simplex virus type 2; conditions: Table 2, read-out: EC-50 HSV-2
Protocol: as §1

Vero cells = assay: Cytotoxicity assay in Vero cells; assay type: cell-based; conditions: for IC50: Table 2, >100 μM = Nontoxic, read-out: IC50 Toxicity Vero Cells; for Toxicity Vero Cells, percent at given concentration: 100 μM
Excerpt: Cell culture assays for heroes simplex viruses. Mycoplasma-free Vero cells, obtained from Flow Laboratory (McLean, Va.), were used for the plaque assays. The methodologies for the plaque reduction and cytotoxicity assays have been previously described (Schinazi et al, Antimicrob. Agents Chemother. 22, 499-507, 1982).

[1] = Table 1, read-out: EC50 Anti-HIV-1 Activity in Human PBM Cells
[2] = Table 2, several values per cell, some in brackets, read-out: EC-50 HIV-1 (LAV-1)
[3] = Table 1, read-out: IC50 Toxicity in Human PBM Cells
[4] = Table 2, >100 μM = Nontoxic, read-out: IC50 Toxicity PBM Cells

Row | Molecule | EC50 (HIV-1 (strain LAV-1); [1]) [µM] | EC50 (HIV-1 (strain LAV-1); [2]) | IC50 (human PBM cells; [3]) [µM] | EC50 (HSV-1) [µM] | EC50 (HSV-2) [µM] | IC50 (Vero cells) [µM] | further results
1 | H3PW12O40 [Formula 2] | 14 | 14 µM | > 100 | 12.7 | 18.7 | 10 | –
2 | (NH4)4W10O32 [Formula 18] | 1.8 | – | 115 | > 10 | 9.7 | > 100 | IC50 (human PBM cells; [4]): > 100 µM
3 | H4SiW12O40 [Formula 3] | 0.12 | – | > 200 | 1.6 | 1.5 | 80 | EC50 (HIV-1 (strain LAV-1); Table 2, several values per cell, some in brackets, listed as α and β H4ST, read-out: EC-50 HIV-1 (LAV-1)): 0.12 µM and 0.21 µM; therapeutic index in human PBM cells (HIV-1 (strain LAV-1); from Table 1 EC50 and IC50): highest
4 | H5BW12O40 [Formula 4] | 0.46 | – | 126 | < 1 | – | 85 | Toxicity PBM Cells, percent at given concentration (human PBM cells; 200 μM): 76%,
5 | (Me4N)4W10O32 [Formula 19] | 3.1 | 3.05 µM and 3.3 µM | > 100 | 5.98 | 8.78 | > 100 | –
6 | (ArgH^+)m(H^+)4-mST, where m=1-4 [(ARGH^+)nH^+(4−n)ST] | – | 1.03 µM and 0.77 µM | – | 0.18 | < 1 | > 100 | IC50 (human PBM cells; [4]): > 100 µM
7 | H6P2W18O62 [Formula 13] | 0.52 | 0.52 µM | 6.2 | 0.16 | 0.18 | – | Toxicity PBM Cells, percent at given concentration (human PBM cells; 100 μM): 90%,; Toxicity Vero Cells, percent at given concentration (Vero cells): 81.9%,
8 | Cc1cn([C@H]2C[C@H](N=[N+]=[N-])[C@@H](CO)O2)c(=O)[nH]c1=O [Formula 22, 3′-azido-3′-deoxythymidine, reference compound] | – | – | – | – | – | – | EC50 (HIV-1 (strain LAV-1); Human immunodeficiency virus 1, PBMC, Table 1, read-out: EC50 Anti-HIV-1 Activity in Human PBM Cells): 0.004 µM; EC50 (HIV-1 (strain LAV-1); Human immunodeficiency virus 1, PBMC, Table 2, several values per cell, some in brackets, read-out: EC-50 HIV-1 (LAV-1)): 0.00308 µM; IC50 (human PBM cells; Homo sapiens, PBMC, Table 1, read-out: IC50 Toxicity in Human PBM Cells): > 100 µM; IC50 (human PBM cells; Homo sapiens, PBMC, Table 2, >100 μM = Nontoxic, read-out: IC50 Toxicity PBM Cells): > 100 µM; EC50 (HSV-1; Human alphaherpesvirus 1, Vero): > 100 µM; EC50 (HSV-2; Human alphaherpesvirus 2, Vero): > 100 µM; IC50 (Vero cells; Chlorocebus sabaeus, Vero): 29 µM
9 | (NH4)6P2W18O62 [Formula 14] | 0.91 | 0.91 µM | 1.8 | 0.33 | 0.24 | – | Toxicity PBM Cells, percent at given concentration (human PBM cells; 100 μM): 76%,; Toxicity Vero Cells, percent at given concentration (Vero cells): 83%,
